Assay results reported in patent US20110065675A1, “AZO DYE RELATED SMALL MOLECULE MODULATORS OF PROTEIN-PROTEIN INTERACTIONS” (University of Miami, priority 2008, published 2011).
Read-outs that look alike come from different tables or passages of the source. One block for each compound: values may come before it.

What was measured:
[1] = biological target: T1, human CD40/CD154 (Homo sapiens, UniProt P29965); assay: Human CD40/CD154 binding inhibition assay (cell-free, plate-based); conditions: for Human CD40/CD154 IC50 / IC50: cell-free binding; for Human CD40/CD154 log IC50: log of IC50, cell-free binding
T1 construct: CD154 (soluble human, FLAG-tagged, recombinant from Alexis Biochemicals; MW=18 kDa); purchased Alexis Biochemicals
T1 sequence (P29965 113-261 limits assumed): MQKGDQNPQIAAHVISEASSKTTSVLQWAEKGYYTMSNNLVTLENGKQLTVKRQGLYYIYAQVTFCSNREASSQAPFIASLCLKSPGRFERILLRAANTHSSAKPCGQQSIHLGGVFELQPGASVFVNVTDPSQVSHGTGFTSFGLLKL
Description: A 96-well plate-based cell-free in vitro binding inhibition assay, which is a modification of an assay described in U.S. Pat. No. 7,173,046, incorporated by reference in its entirety, has been developed and used for activity screening. Briefly, CD40 is coated at a preselected concentration, and binding of (FLAG-tagged) CD154 is measured by reacting with secondary antibody and using TMB liquid substrate system as a substrate for horseradish peroxidase for reading at 450 nm. The detailed procedure is as follows: Microtiter plates (Nunc F MaxiSorp) were coated with […] of CD40: Fc (human:Fc human, recombinant from Alexis Biochemicals; MW=54 kDa) diluted in PBS pH 7.2 at a preselected concentration of 0.3125 μg/mL. Plates were covered with plate sealer and stored overnight at 4° C. The liquid was removed from the plates and blotted dry. Plates were blocked by washing once with approx. 300 μL/well of Blocking Solution (PBS pH 7.2, 0.05% Tween-20, 1% BSA) and incubated with the same solution for 1 hour at room temperature (RT) or at 4° C. overnight. Coated plates were washed three times with Washing Solution (PBS pH 7.4, 0.05% Tween-20) and blotted dry. A preselected dilution of CD154 (soluble human, FLAG-tagged, recombinant from Alexis Biochemicals; MW=18 kDa) of 0.0087500875 μg/mL range was prepared in 100 mM HEPES, 0.005% BSA pH 7.2. Binding was carried out by adding 100 μL of this CD154 dilution/well and incubating at RT in the presence of test compounds (or blank as negative control). After incubation, the plates were washed with Washing Solution and blotted dry. Bound CD154 was detected with 200 μL/well of secondary antibody mAb ANTI-FLAG M2—Peroxidase Conjugate (anti-FLAG M2-peroxidase HRP conjugate; Sigma-Aldrich) diluted 1:40,000 in Washing Solution. After incubation, the plates were washed and blotted dry. 200 μL/well of the HR-Peroxidase substrate TMB (3,3′,5,5′-tetramethylbenzidine; Sigma-Aldrich) were added, and the plates were incubated for approximately 30 minutes in the dark. The reaction was stopped with 0.5 M H2SO4 and read at 450 nm. All conditions were tested in at least three independent experiments in duplicate or triplicate per plates. Data were normalized and fitted with standard log inhibitor vs. response models using GraphPad Prism 5 to establish median inhibitory ICso values.
A representative result using the monoclonal anti-human CD154 antibody (R&D Systems, monoclonal anti-human CD40 ligand/TNFSF5 antibody, MAB617; MW≈150 kDa used) as positive control is shown in FIG. 1.
Binding inhibition assays with this system provided consistent and well-reproducible results, as FIG. 1 (bottom), focusing on the concentration range of their activities, illustrates. […] The effect of DMSO, which was used as the diluting solvent for the non-water-soluble compounds and is a standard solvent in HTS assays, on the integrity of the assay has been examined. DMSO concentrations above 10% interfere with the binding assay, but concentrations below 3% have no effect. […] Because 5 or 10 mM stock solutions were used, all IC50 values below 250 μM can be considered as unaffected by DMSO.

[2] = biological target: T2, mouse CD40/CD154 (mCD40:mCD154) (Mus musculus, UniProt P27548); assay: Murine CD40/CD154 binding inhibition assay
T2 construct: (FLAG-tagged) mCD154 (recombinant mouse CD40L, soluble, Alexis Biochemicals); purchased R&D Systems (mCD40/Fc); Alexis Biochemicals (mCD154)
T2 sequence (P27548 112-260 limits assumed): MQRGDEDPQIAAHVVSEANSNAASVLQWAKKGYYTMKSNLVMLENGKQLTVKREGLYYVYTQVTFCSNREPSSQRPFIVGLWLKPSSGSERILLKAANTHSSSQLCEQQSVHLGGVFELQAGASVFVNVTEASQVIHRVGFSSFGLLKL
Description: Compounds of interest were also tested in a murine (mouse) model similar to the human one with murine CD40 and CD154 replacing the corresponding human proteins. This serves as additional confirmation of the in vitro inhibitory potential of these compounds, and it was considered important because mouse models are likely to be used as the first in vivo tests. […] The experimental setup used was similar to the one described above, but using mCD40 (recombinant mouse CD40/TNFRSF5/Fc Chimera, soluble, R&D Systems) and (FLAG-tagged) mCD154 (recombinant mouse CD40L, soluble, Alexis Biochemicals). This time, however, a higher concentration of CD154 ligand had to be employed to obtain adequate signals, and after a number of calibration tests, mCD40 coating at 0.3125 μg/mL with mCD154 (mCD40L) at 1.1212 μg/mL range was selected to be used to screen the inhibiting activity of various compounds.
The experiments confirmed that the murine anti-CD154 monoclonal antibody (Taconic, MR1) was active in this system at the expected concentration (˜1 nM range), the human antibody was not, and vice versa, the human mAb was active in the human system, but not in the mouse system. The mouse system provided a similar range of activity with some (up to approximately five-fold) changes in activities compared to that seen in the human system (FIG. 2) (Table 1).

[3] = biological target: human TNF-R1/TNFα (Homo sapiens, UniProt P01375+P19438); assay: Specificity test: human TNF-R1/TNFα binding inhibition assay; conditions: for IC50: cell-free binding, read-out: Human TNFR1/TNFα IC50; for Human TNFR1/TNFα log IC50: log of IC50, cell-free binding
Text: (§1) A main concern for the therapeutic applicability of these compounds and of small molecule PPI inhibitors in general is related to their ability to achieve some acceptable degree of selectivity/specificity for the PPI of interest. To identify compounds that show acceptable specificity for the CD40/CD154 system, their ability to inhibit the TNF-R1/TNF-α PPI was investigated since this is particularly relevant as CD154 is part of the TNF superfamily. The experimental setup used was very similar to the one described in Example 1, but using plate-coated TNF-R1 and TNF-α as ligand (with a corresponding anti-TNF-α mAb as positive control). The concentration of TNF-R1 and TNF-α used were 0.6 μg/mL and 0.02 μg/mL, respectively.

[4] = test system: human TNF-R1/TNFα; assay: as above
Text: as §1

[5] = biological target: T3, CD40 (Homo sapiens, UniProt P25942); assay: Identification of binding partner: binding to CD40 (pre-incubation, wash-out); conditions: compound incubated 1 h with CD40, washed, then CD154 added
T3 construct: purchased Alexis Biochemicals
Text: It is also of interest to identify whether the compounds bind to the receptor CD40 or its ligand CD154 (CD40L). The main goal is to block the CD40/CD154 costimulatory interaction to achieve altered immune response and long-term tolerance; however, it seems more desirable to achieve this by targeting CD154, which is expressed mainly on activated T cells, since this way a more specific immune suppression could be achieved then by targeting CD40. To evaluate the binding partner of the test compounds, CD40 or CD154 were incubated for one hour with increasing concentrations of the test compounds, and after a wash, their ability to still bind their corresponding protein binding partner (CD154 or CD40, respectively) was assessed using a setup similar to that described before (Example 1).
To test if compounds bind specifically to CD40, the procedure of Example 1 was followed with a modification. After blocking the plates with blocking solution and washing, 100 μL of different dilutions of the compounds were added to the wells and incubated at room temperature (RT) for 1 h to allow binding with CD40 in the absence of its CD154 ligand. The plates were then washed three times with washing solution. CD154 was then added and the amount bound was assessed as before.

[6] = read-out: Human CD40/CD154 IC50
[7] = cell-free binding, read-out: Mouse CD40/CD154 IC50

Chain of human TNF-R1/TNFα (Homo sapiens, UniProt P01375+P19438) (P01375 77-233 limits assumed): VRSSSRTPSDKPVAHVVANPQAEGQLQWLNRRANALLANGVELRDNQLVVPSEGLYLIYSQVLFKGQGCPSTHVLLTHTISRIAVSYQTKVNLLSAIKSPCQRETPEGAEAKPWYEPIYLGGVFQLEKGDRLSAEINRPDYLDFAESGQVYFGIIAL
Chain of human TNF-R1/TNFα (Homo sapiens, UniProt P01375+P19438) (P19438 30-211 limits assumed): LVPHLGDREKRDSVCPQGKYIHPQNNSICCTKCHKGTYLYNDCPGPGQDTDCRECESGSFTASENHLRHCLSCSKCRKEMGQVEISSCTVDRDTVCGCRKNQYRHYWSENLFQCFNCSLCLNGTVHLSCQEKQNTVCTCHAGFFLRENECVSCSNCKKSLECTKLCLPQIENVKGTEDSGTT
T3 sequence (P25942 21-193 limits assumed): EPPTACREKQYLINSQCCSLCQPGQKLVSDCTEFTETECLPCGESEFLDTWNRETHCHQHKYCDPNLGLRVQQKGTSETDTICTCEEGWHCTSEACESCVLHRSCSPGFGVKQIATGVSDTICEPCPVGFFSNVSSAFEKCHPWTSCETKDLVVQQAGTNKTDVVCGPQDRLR

Compound: O=C(Nc1ccc2c(O)c(N=Nc3ccc(N=Nc4ccc(S(=O)(=O)[O-])cc4)cc3)c(S(=O)(=O)[O-])cc2c1)c1ccccc1.[Na+].[Na+] [Direct red 81, direct red 81]
Human CD40/CD154 IC50 [1]: 6.9 µg/mL
IC50 [1, 6]: 13.6 µM
Human CD40/CD154 log IC50 [1]: −4.87
IC50 [2, 7]: 33.8 µM
Mouse CD40/CD154 log IC50 ([2]; log of IC50, cell-free binding): −4.47
IC50 [3]: > 1000 µM
Human TNFR1/TNFα log IC50 [3]: >−3.0

Compound: O.O=C([O-])c1ccccc1-c1c2cc(I)c(=O)c(I)c-2oc2c(I)c([O-])c(I)cc12.[Na+].[Na+] [Erythrosin B (FD&C red 3), Erythrosin B, reference compound]
Human CD40/CD154 IC50 [1]: 2.0 µg/mL
IC50 [1, 6]: 1.9 µM
Human CD40/CD154 log IC50 [1]: −5.72
IC50 [2, 7]: 5.9 µM
Mouse CD40/CD154 log IC50 ([2]; log of IC50, cell-free binding): −5.23
IC50 [3]: 9 µM
Human TNFR1/TNFα log IC50 [3]: −5.04
Specificity [4]: nonspecific promiscuous inhibitor
Inhibitory activity for all interactions tested ([4]; all interactions tested (CD40/CD154, TNF-R1/TNF-α)): ~10 µM
Binding to CD40 [5]: ubiquitous binder

Compound: direct fast red B
Human CD40/CD154 IC50 [1]: 5.7 µg/mL
IC50 [1, 6]: 14 µM
Human CD40/CD154 log IC50 [1]: −4.86
IC50 [2, 7]: 16.7 µM
Mouse CD40/CD154 log IC50 ([2]; log of IC50, cell-free binding): −4.78
IC50 [3]: 2160 µM
Human TNFR1/TNFα log IC50 [3]: −2.67

More lines, in order of falling IC50 [1, 6], values ahead:

Human CD40/CD154 IC50 [1]: 3.6 µg/mL
IC50 [1, 6]: 5.5 µM
Human CD40/CD154 log IC50 [1]: −5.26
IC50 [2, 7]: 13.7 µM
Mouse CD40/CD154 log IC50 ([2]; log of IC50, cell-free binding): −4.86
IC50 [3]: 168 µM
Human TNFR1/TNFα log IC50 [3]: −3.77
Compound: Cc1cc(S(=O)(=O)[O-])ccc1N=Nc1ccc(N=Nc2c(O)ccc3cccc(S(=O)(=O)[O-])c23)c(C)c1.[Na+].[Na+] [Crocein scarlet 7B, crocein scarlet 7B]

Human CD40/CD154 IC50 [1]: 3.5 µg/mL
IC50 [1, 6]: 5.5 µM
Human CD40/CD154 log IC50 [1]: −5.26
IC50 [2, 7]: 12.7 µM
Mouse CD40/CD154 log IC50 ([2]; log of IC50, cell-free binding): −4.90
IC50 [3]: 214 µM
Human TNFR1/TNFα log IC50 [3]: −3.67
Compound: direct red 13

Human CD40/CD154 IC50 [1]: 4.9 µg/mL
IC50 [1, 6]: 4.8 µM
Human CD40/CD154 log IC50 [1]: −5.32
IC50 [2, 7]: 7.4 µM
Mouse CD40/CD154 log IC50 ([2]; log of IC50, cell-free binding): −5.13
IC50 [3]: 322 µM
Human TNFR1/TNFα log IC50 [3]: −3.49
Compound: Nc1ccc2cc(S(=O)(=O)[O-])cc(O)c2c1N=Nc1ccc(NC(=O)Nc2ccc(N=Nc3c(N)ccc4cc(S(=O)(=O)[O-])cc(O)c34)c(S(=O)(=O)[O-])c2)cc1S(=O)(=O)[O-].[Na+].[Na+].[Na+].[Na+] [Direct red 75 (chlorazol fast pink), direct red 75]

IC50 [1, 6]: 4.7 µM
IC50 ([1]; read-out: Human CD40/CD154 IC50 (ug/mL) (converted)): 5.2 µM
IC50 [2, 7]: 2.3 µM
IC50 ([2]; log of IC50, cell-free binding, read-out: Mouse CD40/CD154 log IC50 (converted)): 2.24 µM
IC50 [3]: 438 µM
Compound: O=C(Nc1ccc(C(=O)Nc2ccc(C(=O)Nc3ccc(S(=O)(=O)O)c4cc(S(=O)(=O)O)cc(S(=O)(=O)O)c34)cc2)cc1)Nc1ccc(C(=O)Nc2ccc(C(=O)Nc3ccc(S(=O)(=O)O)c4cc(S(=O)(=O)O)cc(S(=O)(=O)O)c34)cc2)cc1 [NF279]

Human CD40/CD154 IC50 [1]: 1.9 µg/mL
IC50 [1, 6]: 1.8 µM
Human CD40/CD154 log IC50 [1]: −5.73
IC50 [2, 7]: 5.9 µM
Mouse CD40/CD154 log IC50 ([2]; log of IC50, cell-free binding): −5.23
IC50 [3]: 1430 µM
Human TNFR1/TNFα log IC50 [3]: −2.85
Compound: O=C(Nc1ccc2c(O)c(N=Nc3ccc(N=Nc4ccc(S(=O)(=O)[O-])cc4)cc3S(=O)(=O)[O-])c(S(=O)(=O)[O-])cc2c1)Nc1ccc2c(O)c(N=Nc3ccc(N=Nc4ccc(S(=O)(=O)[O-])cc4)cc3S(=O)(=O)[O-])c(S(=O)(=O)[O-])cc2c1.[Na+].[Na+].[Na+].[Na+].[Na+].[Na+] [Direct red 80, direct red 80]
